Assay results from US11701369B2, “Polymeric bile acid derivatives inhibit Hepatitis B and D virus and NTCP transport” (Huahui Health Ltd., priority 2014, dated 2023).
“Also recorded” adds a separate entry of the source.

Assays:
[1] = test system: HBV; experiment: HBV infection assay on HepG2-NTCP cells (secreted HBeAg by ELISA); format: cell-based, Hepatitis B virus; conditions: for inhibition of HBV infection (in words): HepG2-NTCP cells, secreted HBeAg
Experimental: (§1) HBV and HDV infection assay. HepG2NTCP Cells were cultured in PMM for 12-24 hrs before infection, and then inoculated with 200 multiplicities of genome equivalents (mge) of HBV, or 500 mge of HDV in the presence of 5% PEG8000 in PMM at 37° C. for about 24 hrs. Chemicals to be tested were added to the cells as indicated in the specific assays. The inoculum was replenished by PMM post infection. The infections were detected at day 5 post infection (dpi).
ELISA assay for the detection of HBeAg and HBsAg. ELISA kits for HBeAg and HBsAg detection were from Wantai Pharm Inc. (Beijing, China). Supernatant from infected HepG2NTCP cells was collected on 2-5 days post infection. The secreted HBeAg and HBsAg in the culture medium was measured with a commercial kit from Wantai Pharm Inc (Beijing, China) by following the manufactory's instructions.

[2] = target: T1, NTCP (Homo sapiens, UniProt Q14973); experiment: FITC-preS1 peptide binding assay; conditions: high concentration of compound
T1 construct: expressed in transfected cells
T1 sequence (Q14973 1-349): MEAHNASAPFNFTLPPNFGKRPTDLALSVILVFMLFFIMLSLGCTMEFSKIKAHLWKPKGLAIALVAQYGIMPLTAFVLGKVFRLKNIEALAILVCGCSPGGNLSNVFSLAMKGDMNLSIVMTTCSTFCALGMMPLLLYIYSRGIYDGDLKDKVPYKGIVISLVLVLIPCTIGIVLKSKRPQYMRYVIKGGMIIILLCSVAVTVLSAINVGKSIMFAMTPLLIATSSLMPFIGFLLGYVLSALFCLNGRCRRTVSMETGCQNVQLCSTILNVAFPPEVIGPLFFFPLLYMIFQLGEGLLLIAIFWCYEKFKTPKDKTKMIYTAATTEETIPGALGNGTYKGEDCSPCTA
Experimental: FITC-preS1 peptide binding assay. NTCP expressing cells were cultured in PTH maintenance medium (PMM) for 24 hrs before conducting this assay. For Immunofluorescence microscopy, cells were incubated with 400 nM FITC-pre-S1 peptide diluted in WME or PMM at 37° C. for about 2-3 hrs. Subsequently, cells were washed once by WME, and then directly visualized with a Fluorescence Microscope.

[3] = test system: HDV; experiment: HDV infection assay on HepG2-NTCP cells (intracellular delta antigen staining); format: cell-based, Hepatitis D virus
Experimental: as §1
Immunostaining assay. For HBV infection, infected cells were washed twice with PBS and fixed in 3.7% paraformaldehyde (PFA) at room temperature for 10 mins. Subsequently, cells were permeabilized with 0.5% Trition X-100/PBS for 10 mins at room temperature, blocked with 3% BSA at 37° C. for 1 hour, and followed by incubating with 5 μg/ml mouse mAb1C10 which recognizes HBcAg, and followed by staining with FITC-conjugated secondary antibody. Nucleus was stained with DAPI in blue. The stained cells were imaged with the fluorescence microscope (Nikon). For HDV infection, on 5 dpi, HDV infected cells were fixed with 100% methanol at room temperature for 10 mins, intracellular delta antigens were then stained with 5 μg/ml of FITC conjugated 4G5 and nucleus were stained with DAPI in blue. Images were collected by an Eclipse Ti Fluorescence Microscope (Nikon) and a representative picture is shown.

[4] = test system: HBV; experiment: HBV infection assay on HepaRG cells (HBsAg and HBeAg ELISA); format: cell-based, Hepatitis B virus; conditions: HBsAg and HBeAg at 5 dpi
Experimental: FIG. 11 HepaRG cells were infected with HBV in the presence of indicated PBADs. The level of secreted HBsAg and HBeAg was detected by ELISA at 5 dpi.
The antiviral potency of PBADs is also repeatable on other HBV infection system (HepaRG) with similar inhibition profile. […] HBV infection was conducted in the presence of NQL028, NQL018, NQL029, NQL019 and NQL021, all of which were bis-ester based PBADs with different linkage length.

[5] = test system: HBV; experiment: In vitro stability: incubation with HBV inocula before infection, HBeAg ELISA; format: cell-based, Hepatitis B virus; conditions: incubated with HBV inocula for different times before infection, HBeAg at 5 dpi
Experimental: FIG. 10 The influence of the linkage groups on the in vitro stability of PBADs. TUDCA, NQL018, NQL044, and NQL055 were incubated with HBV inocula of different times before viral infection, and present in the inocula during infection period. The level of secreted HBeAg was detected by ELISA at 5 dpi.
The in vitro stability of PBADs could PBADs could be enhanced by optimization of the linkage bond. We conducted stability analysis of several PBADs with similar structure but of different linkage. […] This indicates the in vitro and in vivo stability is to a large extent determined by the feature of the linkage groups.

[6] = target: T1, NTCP; experiment: [3H] taurocholate uptake assay on HepG2-NTCP cells; format: cell-based; conditions: for inhibition of NTCP substrate uptake (in words): co-incubation assay, [3H] taurocholate, 10 min
Experimental: [3H] substrate uptake assay. [3H]taurocholate uptake assay was conducted following a protocol as previously described(60). In general, HepG2-NTCP cells were cultured in PMM for 12-24 hrs, then were treated with or without indicated chemicals before uptake assay. For substrate uptake assay, cells were generally incubated with 0.5 μl (0.5 μCi) [3H]-taurocholate dissolved in Na+ Ringer's solutions for 10 mins at 37° C. with or without the presence of chemicals. Subsequently, cells were washed once by PBS and lysed by 100 μl of 1% TritonX-100 in H2O for 5 mins at room temperature. The lysate was transferred into liquid scintillation tube and mixed with 900 μl liquid scintillation cocktail (Ultima GOLD™ XR) (Perkin Elmer, USA). Liquid scintillation counting was performed on a Perkin Elmer 1450 LSC Liquid Scintillation Counter and Luminescence Counter.

[7] = test system: HepG2-NTCP cells; experiment: In vitro cytotoxicity on HepG2-NTCP cell line; format: cell-based; conditions: HepG2-NTCP, 48 hrs treatment, then 3 days culture in PMM
Experimental: FIG. 6 Toxicity of 3UT(NQL-012), DiU(NQL-009) and 3TPT(NQL-018) in cell cultures. HepG2-NTCP cells were incubated with 3UT(NQL-012), DiU(NQL-009) or 3TPT(NQL-018) at indicated concentrations for 48 hrs, cell viability was evaluated and images were captured at 5 dpi.
In vitro cytotoxicity of PBADs. We also conducted experiments to determine the LD50 on HepG2-NTCP cell line of the three PBADs (3-UT (NQL-012), DIU (NQL-009), 3TPT (NQL-018)). We treated cells by different concentrations of PBADs for 48 hrs and captured the images of cells after they were further cultured for 3 days in PMM. […] No detectable cytotoxicity was observed upon treatment of DIU(NQL-009) and 3TPT(NQL-018) up to 200 μM, which is 2000-4000 folds higher than its inhibitory concentration for HBV infection.

| SMILES | inhibition of HBV infection (in words) [1] | inhibition of HDV infection (in words) [3] | inhibition of HBV infection on HepaRG cells (in words) [4] | further results |
| --- | --- | --- | --- | --- |
| C[C@H](CCC(=O)O[C@H]1CC[C@@]2(C)C(C1)C[C@H](O)C1[C@H]3CC[C@H]([C@H](C)CCC(=O)O[C@H]4CC[C@@]5(C)C(C4)C[C@H](O)C4[C@H]6CC[C@H]([C@H](C)CCC(=O)NCCS(=O)(=O)O)[C@@]6(C)CC[C@H]45)[C@@]3(C)CC[C@H]12)[C@H]1CC[C@@H]2C3[C@@H](CC[C@@]21C)[C@@]1(C)CC[C@H](O)CC1C[C@@H]3O (some centres unmarked) [NQL-016] | not as high as the dimeric counterparts | not as high as the dimeric counterparts |  | effect on FITC-preS1 peptide at high concentration [2]: aggregation of FITC-preS1 peptide |
| C[C@H](CCC(=O)NCCS(=O)(=O)O)[C@H]1CC[C@H]2[C@@H]3[C@@H](O)CC4CC(NC(=O)CCCC(=O)NC5CC[C@@]6(C)C(C5)C[C@H](O)[C@H]5[C@@H]7CC[C@H]([C@H](C)CCC(=O)NCCS(=O)(=O)O)[C@@]7(C)CC[C@@H]56)CC[C@]4(C)[C@H]3CC[C@]12C (some centres unmarked) [NQL-021] |  |  | inhibited HBV infection |  |
| C[C@H](CCC(=O)NCCS(=O)(=O)O)[C@H]1CC[C@H]2[C@@H]3[C@@H](O)CC4C[C@H](OCc5cn([C@@H]6CC[C@@]7(C)C(C6)C[C@H](O)[C@H]6[C@@H]8CC[C@H]([C@H](C)CCC(=O)NCCS(=O)(=O)O)[C@@]8(C)CC[C@@H]67)nn5)CC[C@]4(C)[C@H]3CC[C@]12C (some centres unmarked) [NQL-055] |  |  |  | in vitro stability (antiviral potency after long incubation with the inoculum) [5]: much more stable as no significant potency decrease was observed |
| C[C@H](CCC(=O)NCCS(=O)(=O)O)[C@H]1CC[C@@H]2C3[C@@H](OC(=O)CC[C@@H](C)[C@H]4CC[C@@H]5C6[C@@H](CC[C@@]54C)[C@@]4(C)CC[C@H](O)CC4C[C@@H]6O)CC4C[C@@H](O)CC[C@]4(C)[C@@H]3CC[C@@]21C (some centres unmarked) [NQL-015] | high antiviral activity; also recorded: greatly improved potency | high antiviral activity; also recorded: greatly improved potency |  | inhibition of NTCP substrate uptake (in words) [6]: significantly higher efficiency than that of TUDCA |
| C[C@H](CCC(=O)NCCS(=O)(=O)O)[C@H]1CC[C@H]2[C@@H]3[C@@H](O)CC4C[C@H](OC(=O)CCC(=O)O[C@@H]5CC[C@@]6(C)C(C5)C[C@H](O)[C@H]5[C@@H]7CC[C@H]([C@H](C)CCC(=O)NCCS(=O)(=O)O)[C@@]7(C)CC[C@@H]56)CC[C@]4(C)[C@H]3CC[C@]12C (stereo in doubt) [NQL-028] |  |  | inhibited HBV infection |  |
| C[C@H](CCC(=O)NCCS(=O)(=O)O)[C@H]1CC[C@H]2[C@@H]3[C@@H](O)CC4C[C@H](OC(=O)CCCCC(=O)O[C@@H]5CC[C@@]6(C)C(C5)C[C@H](O)[C@H]5[C@@H]7CC[C@H]([C@H](C)CCC(=O)NCCS(=O)(=O)O)[C@@]7(C)CC[C@@H]56)CC[C@]4(C)[C@H]3CC[C@]12C (stereo in doubt) [NQL-029] |  |  | inhibited HBV infection |  |
| C[C@H](CCC(=O)NCCS(=O)(=O)O)[C@H]1CC[C@H]2[C@@H]3[C@@H](O)CC4C[C@H](NC(=O)CCCC(=O)N[C@@H]5CC[C@@]6(C)C(C5)C[C@H](O)[C@H]5[C@@H]7CC[C@H]([C@H](C)CCC(=O)NCCS(=O)(=O)O)[C@@]7(C)CC[C@@H]56)CC[C@]4(C)[C@H]3CC[C@]12C (some centres unmarked) [NQL-044] | high antiviral activity | high antiviral activity |  | in vitro stability (antiviral potency after long incubation with the inoculum) [5]: much more stable as no significant potency decrease was observed |
| C[C@H](CCC(=O)NCCS(=O)(=O)O)[C@H]1CC[C@H]2[C@@H]3[C@@H](O)CC4C[C@H](OC(=O)CCCCCC(=O)O[C@@H]5CC[C@@]6(C)C(C5)C[C@H](O)[C@H]5[C@@H]7CC[C@H]([C@H](C)CCC(=O)NCCS(=O)(=O)O)[C@@]7(C)CC[C@@H]56)CC[C@]4(C)[C@H]3CC[C@]12C (stereo in doubt) [NQL-019] |  |  | inhibited HBV infection |  |
| C[C@H](CCC(=O)O[C@H]1CC[C@@]2(C)C(C1)C[C@H](O)C1[C@H]3CC[C@H]([C@H](C)CCC(=O)NCCS(=O)(=O)O)[C@@]3(C)CC[C@H]12)[C@H]1CC[C@@H]2C3[C@@H](CC[C@@]21C)[C@@]1(C)CC[C@H](O)CC1C[C@@H]3O (some centres unmarked) [NQL-012] | high antiviral activity; also recorded: greatly improved potency | high antiviral activity; also recorded: greatly improved potency |  | LD50 [7]: ~25 µM; inhibition of NTCP substrate uptake (in words) [6]: significantly higher efficiency than that of TUDCA; IC50 ([6]; pretreatment assay, HepG2-NTCP cells pretreated 2 hrs before uptake assay, read-out: IC50 for inhibiting NTCP-mediated [3H] taurocholate uptake): 109 nM; IC50 ([1]; Hepatitis B virus, read-out: IC50 for inhibiting HBV infection, HepG2-NTCP cells, PBAD present during infection, HBeAg in medium at 5 dpi): 100 nM |
